Assay results taken from ChEMBL document CHEMBL1201862, “PubChem BioAssay data set” (2004).
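Assay format: 96-well plates, 48-hour exposure. GI50 marks 50% less growth.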 The source made the active and inactive calls. Cut-off read from the data, not from the text of the source: active = GI50 up to about 1.1 µM and inactive = higher.

Key:
Assay in all cases: NCI-60 cell line screen, 48 h
[1] = system: SNB-19
[2] = system: NCI-H460
[3] = system: MOLT-4
[4] = system: A549
[5] = system: OVCAR-5
[6] = system: DMS-273
[7] = system: KM12
[8] = system: LXFL 529
[9] = system: COLO 205
[10] = system: M14
[11] = system: OVCAR-3
[12] = system: SF-539
[13] = system: HT-29
[14] = system: XF498
[15] = system: IGROV-1
[16] = system: DMS-114
[17] = system: SK-MEL-28
[18] = system: HCC 2998
[19] = system: OVCAR-4
[20] = system: UACC-257
[21] = system: HL-60
[22] = system: LOX IMVI
[23] = system: CCRF-CEM
[24] = system: KM-20L2
[25] = system: TK-10
[26] = system: OVCAR-8
[27] = system: SK-MEL-2
[28] = system: SK-OV-3
[29] = system: RXF 393
[30] = system: NCI-H23
[31] = system: RXF 631
[32] = system: NCI-H226
[33] = system: ACHN
[34] = system: SNB-75
[35] = system: UACC-62
[36] = system: CAKI-1
[37] = system: Malme-3M
[38] = system: SNB-78
[39] = system: SN12C
[40] = system: SF-295
[41] = system: SK-MEL-5
[42] = system: SW-620
[43] = system: NCI-H522
[44] = system: EKVX
[45] = system: DLD-1
[46] = system: K562
[47] = system: HCT-116
[48] = system: 786-0
[49] = system: M19-MEL
[50] = system: SF-268
[51] = system: HOP-18
[52] = system: A498
[53] = system: UO-31
[54] = system: RPMI-8226
[55] = system: U-251
[56] = system: HCT-15
[57] = system: HOP-62
[58] = system: HOP-92

In the case of `COC1OC(CO)C(O)C(OC(C)=O)C1NC(=O)N(CCCl)N=O` (stereo not given), the GI50 [1] is reported as > 100 µM (inactive), the GI50 [2] is reported as 83.6 µM (inactive) and the GI50 [3] is reported as 95.9 µM (inactive). For the same compound, the GI50 [4] was > 100 µM (inactive), the GI50 [5] was > 100 µM (inactive) and the GI50 [6] was > 100 µM (inactive). The GI50 [7] was > 100 µM (inactive), the GI50 [8] was > 100 µM (inactive) and the GI50 [9] was > 100 µM (inactive). For the same compound, the GI50 [10] was > 100 µM (inactive), the GI50 [11] was > 100 µM (inactive) and the GI50 [12] was 34.3 µM (inactive). For the same compound, the GI50 [13] was > 100 µM (inactive), the GI50 [14] was > 100 µM (inactive) and the GI50 [15] was > 100 µM (inactive). The GI50 [16] was > 100 µM (inactive), the GI50 [17] was > 100 µM (inactive) and the GI50 [18] was > 100 µM (inactive). For the same compound, the GI50 [19] was > 100 µM (inactive), the GI50 [20] was > 100 µM (inactive) and the GI50 [21] was 3.52 µM (inactive). The GI50 [22] was 55 µM (inactive), the GI50 [23] was > 100 µM (inactive) and the GI50 [24] was > 100 µM (inactive). For the same compound, the GI50 [25] was > 100 µM (inactive), the GI50 [26] was > 100 µM (inactive) and the GI50 [27] was 0.0112 µM (active). For the same compound, the GI50 [28] was > 100 µM (inactive), the GI50 [29] was > 100 µM (inactive) and the GI50 [30] was > 100 µM (inactive). For the same compound, the GI50 [31] was > 100 µM (inactive), the GI50 [32] was > 100 µM (inactive) and the GI50 [33] was > 100 µM (inactive). For the same compound, the GI50 [34] was 46 µM (inactive), the GI50 [35] was 24.8 µM (inactive) and the GI50 [36] was > 100 µM (inactive). For the same compound, the GI50 [37] was > 100 µM (inactive), the GI50 [38] was > 100 µM (inactive) and the GI50 [39] was > 100 µM (inactive). The GI50 [40] was 42.7 µM (inactive), the GI50 [41] was > 100 µM (inactive) and the GI50 [42] was > 100 µM (inactive). The GI50 [43] was > 100 µM (inactive), the GI50 [44] was > 100 µM (inactive) and the GI50 [45] was > 100 µM (inactive). For the same compound, the GI50 [46] was > 100 µM (inactive), the GI50 [47] was > 100 µM (inactive) and the GI50 [48] was 81.7 µM (inactive). For the same compound, the GI50 [49] was > 100 µM (inactive), the GI50 [50] was 21.3 µM (inactive) and the GI50 [51] was > 100 µM (inactive). For the same compound, the GI50 [52] was > 100 µM (inactive).

`Cc1nc2ccccc2c(=O)n1/N=C(\N=N\c1ccccc1)c1ccccc1Cl` was tested, and the GI50 [1] was 48.1 µM (inactive), the GI50 [2] was 24 µM (inactive) and the GI50 [3] was 14.8 µM (inactive). For the same compound, the GI50 [4] was 52.5 µM (inactive), the GI50 [5] was > 100 µM (inactive) and the GI50 [6] was 41 µM (inactive). For the same compound, the GI50 [7] was 41.4 µM (inactive), the GI50 [53] was 29.2 µM (inactive) and the GI50 [8] was 24.3 µM (inactive). The GI50 [9] was > 100 µM (inactive), the GI50 [10] was > 86.7 µM (inactive) and the GI50 [11] was 27 µM (inactive). For the same compound, the GI50 [12] was 23.5 µM (inactive), the GI50 [13] was 43.8 µM (inactive) and the GI50 [14] was 18.7 µM (inactive). For the same compound, the GI50 [15] was 39.9 µM (inactive), the GI50 [16] was 26 µM (inactive) and the GI50 [17] was 79.3 µM (inactive). For the same compound, the GI50 [54] was 20.4 µM (inactive), the GI50 [18] was 38.2 µM (inactive) and the GI50 [19] was 41 µM (inactive). For the same compound, the GI50 [20] was 75 µM (inactive), the GI50 [55] was 40.6 µM (inactive) and the GI50 [21] was 33.3 µM (inactive). The GI50 [22] was 66.1 µM (inactive), the GI50 [23] was 26.7 µM (inactive) and the GI50 [24] was 65.5 µM (inactive). The GI50 [25] was 38.9 µM (inactive), the GI50 [26] was 59.7 µM (inactive) and the GI50 [27] was 20.7 µM (inactive). The GI50 [28] was 11.2 µM (inactive), the GI50 [29] was 21.6 µM (inactive) and the GI50 [30] was 27.7 µM (inactive). For the same compound, the GI50 [31] was > 71.4 µM (inactive), the GI50 [32] was 14.5 µM (inactive) and the GI50 [33] was 33.3 µM (inactive). For the same compound, the GI50 [34] was 23.8 µM (inactive), the GI50 [35] was 54.6 µM (inactive) and the GI50 [36] was 25.4 µM (inactive). For the same compound, the GI50 [37] was 53 µM (inactive), the GI50 [56] was 48.1 µM and the GI50 [38] was 30.2 µM (inactive). For the same compound, the GI50 [39] was 32.4 µM (inactive), the GI50 [40] was 1.04 µM (active) and the GI50 [57] was 32.1 µM (inactive). For the same compound, the GI50 [41] was 38.3 µM (inactive), the GI50 [42] was > 88.5 µM (inactive) and the GI50 [43] was 30.2 µM (inactive). For the same compound, the GI50 [44] was 22.4 µM (inactive), the GI50 [58] was 25 µM (inactive) and the GI50 [45] was 42.6 µM (inactive). For the same compound, the GI50 [46] was 30.6 µM (inactive), the GI50 [47] was > 10 µM (inactive) and the GI50 [48] was 44.8 µM (inactive). The GI50 [49] was > 84.5 µM (inactive), the GI50 [50] was 39 µM (inactive) and the GI50 [51] was 13.6 µM (inactive). For the same compound, the GI50 [52] was 20.6 µM (inactive).
